{"source": "patent US10179771B2", "about": "(GALAPAGOS NV, priority 2014, dated 2019)", "data": [{"target": "T1, Recombinant human JAK2 catalytic domain (Homo sapiens, UniProt O60674)", "T1 construct": "Recombinant human JAK2 catalytic domain (amino acids 808-1132; catalog number PV4210); GST; purchased Invitrogen PV4210", "T1 sequence (O60674 808-1132)": "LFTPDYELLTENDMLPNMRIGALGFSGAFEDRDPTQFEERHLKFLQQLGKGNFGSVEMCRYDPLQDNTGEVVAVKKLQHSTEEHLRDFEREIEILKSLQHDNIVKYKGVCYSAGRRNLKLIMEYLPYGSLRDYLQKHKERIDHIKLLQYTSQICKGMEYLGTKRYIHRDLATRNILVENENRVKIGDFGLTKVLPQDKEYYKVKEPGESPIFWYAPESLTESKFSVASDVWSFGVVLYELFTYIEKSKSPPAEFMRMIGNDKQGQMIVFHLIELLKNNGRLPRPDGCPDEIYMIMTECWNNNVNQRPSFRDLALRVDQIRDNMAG", "experiment": "JAK2 inhibition assay (polyGT substrate / Ulight-JAK1 peptide assay)", "assay_type": "biochemical", "conditions": "Illustrative Compounds of the invention (Table VII)", "protocol": "Recombinant human JAK2 catalytic domain (amino acids 808-1132; catalog number PV4210) was purchased from Invitrogen. 0.025 mU of JAK2 is incubated with […] polyGT substrate (Sigma catalog number P0275) in kinase reaction buffer (5 mM MOPS pH 7.5, 9 mM MgAc, 0.3 mM EDTA, 0.06% Brij and 0.6 mM DTT, 1 μM non-radioactive ATP, 0.25 μCi ^33P-gamma-ATP (GE Healthcare, catalog number AH9968) final concentrations) with or without 5 μL containing test compound or vehicle (DMSO, 1% final concentration), in a total volume of 25 μL, in a polypropylene 96-well plate (Greiner, V-bottom). After 90 min at 30° C., reactions are stopped by adding of 25 μL/well of 150 mM phosphoric acid. All of the terminated kinase reaction is transferred to prewashed (75 mM phosphoric acid) 96 well filter plates (Perkin Elmer catalog number 6005177) using a cell harvester (Perkin Elmer). Plates are washed 6 times with 300 μL per well of a 75 mM phosphoric acid solution and the bottom of the plates is sealed. 40 μL/well of Microscint-20 is added, the top of the plates is sealed and readout is performed using the Topcount (Perkin Elmer). Kinase activity is calculated by subtracting counts per min (cpm) obtained in the presence of a positive control inhibitor (10 μM staurosporine) from cpm obtained in the presence of vehicle. The ability of a test compound to inhibit this activity is determined as:\n[formula] • RFU test compound=RFU determined for sample with test compound present • RFU control=RFU determined for sample with positive control inhibitor • RFU vehicle=RFU determined in the presence of vehicle\nDose dilution series are prepared for the compounds enabling the testing of dose-response effects in the JAK2 assay and the calculation of the IC50 for each compound. Each compound is routinely tested at concentration of 20 μM followed by a 1/3 serial dilution, 8 points (20 μM-6.67 μM-2.22 μM-740 nM-247 nM-82 nM-27 nM-9 nM) in a final concentration of 1% DMSO. When potency of compound series increased, more dilutions are prepared and/or the top concentration is lowered (e.g. 5 μM, 1 μM).\nRecombinant human JAK2 (catalytic domain, amino acids 866-1154; catalog number PV4210) was purchased from Invitrogen. 0.0125 mU of JAK2 was incubated with 25 nM Ulight-JAK1 (tyr1023) peptide (Perkin Elmer catalog number TRF0121) in kinase reaction buffer (25 mM HEPES pH7.0, 0.01% Triton X-100, 7.5 mM MgCl2, 2 mM DTT, 7.5 μM ATP) with or without 4 μL containing test compound or vehicle (DMSO, 1% final concentration), in a total volume of 20 μL, in a white 384 Opti plate (Perkin Elmer, catalog number 6007290). After 60 min at room temperature, reactions were stopped by adding 20 μL/well of detection mixture (1× detection buffer (Perkin Elmer, catalog number CR97-100C), 0.5 nM Europium-anti-phosphotyrosine (PT66) (Perkin Elmer, catalog number AD0068), 10 mM EDTA). Readout is performed using the Envision with excitation at 320 nm and measuring emission at 615 nm (Perkin Elmer). Kinase activity was calculated by subtracting relative fluorescence units (RFU) obtained in the presence of a positive control inhibitor (10 μM staurosporine) from RFU obtained in the presence of vehicle. The ability of a test compound to inhibit this activity was determined as: Percentage inhibition=((RFU determined for sample with test compound present−RFU determined for sample with positive control inhibitor) divided by (RFU determined in the presence of vehicle−RFU determined for sample with positive control inhibitor))*100.\nDose dilution series are prepared for compound enabling the testing of dose-response effects in the JAK2 assay and the calculation of the IC50 for the compound. Each compound is routinely tested at concentration of 20 μM followed by a 1/5 serial dilution, 10 points in a final concentration of 1% DMSO. When potency of compound series increases, more dilutions are prepared and/or the top concentration are lowered (e.g. 5 μM, 1 μM). […]", "units": {"IC50": "nM"}, "values": [{"smiles": "CCc1cc(C#N)cc(F)c1N(C)c1cc(NC(=O)C2CC2)c2ncn(C)c2c1", "note": "[Cpd 3, N-(6-((4-cyano-2-ethyl-6-fluorophenyl)(methyl)amino)-1-methyl-1H-benzo[d]imidazol-4-yl)cyclopropanecarboxamide]", "IC50": "0.1 to 50"}, {"smiles": "Cc1cc(C#N)ncc1Oc1cc(NC(=O)[C@H]2C[C@H]2F)c2ncn(C)c2c1", "note": "[Cpd 20, (1R,2R)-N-[6-[(6-cyano-4-methyl-3-pyridyl)oxy]-1-methyl-benzimidazol-4-yl]-2-fluoro-cyclopropanecarboxamide]", "IC50": "50 to 100"}, {"smiles": "Cc1cc(C#N)ncc1Oc1cc(NC(=O)N2CC(O)C2)c2ncn(C)c2c1", "note": "[Cpd 36, N-[6-[(6-cyano-4-methyl-3-pyridyl)oxy]-1-methyl-benzimidazol-4-yl]-3-hydroxy-azetidine-1-carboxamide]", "IC50": "> 500"}, {"smiles": "Cc1cc(C#N)nc(F)c1N(C)c1cc(NC(=O)[C@H]2C[C@H]2F)c2ncn(C)c2c1", "note": "[Cpd 21, (1R,2R)-N-[6-[(6-cyano-2-fluoro-4-methyl-3-pyridyl)-methyl-amino]-1-methyl-benzimidazol-4-yl]-2-fluoro-cyclopropanecarboxamide]", "IC50": "0.1 to 50"}, {"smiles": "Cc1cc(S(C)(=O)=O)cc(F)c1N(C)c1cc(NC(=O)C2CC2)c2ncn(C)c2c1", "note": "[Cpd 19, N-[6-(2-fluoro-N,6-dimethyl-4-methylsulfonyl-anilino)-1-methyl-benzimidazol-4-yl]cyclopropanecarboxamide]", "IC50": "0.1 to 50"}, {"smiles": "CN(c1cc(NC(=O)[C@H]2C[C@H]2F)c2ncn(C)c2c1)c1ccc(F)nc1F", "note": "[Cpd 13, (1R,2R)-N-[6-[(2,6-difluoro-3-pyridyl)-methyl-amino]-1-methyl-benzimidazol-4-yl]-2-fluoro-cyclopropanecarboxamide]", "IC50": "100 to 500"}, {"smiles": "Cc1cc(C(N)=O)ncc1Oc1cc(NC(=O)[C@H]2C[C@H]2F)c2ncn(C)c2c1", "note": "[Cpd 32, 5-[7-[[(1R,2R)-2-fluorocyclopropanecarbonyl]amino]-3-methyl-benzimidazol-5-yl]oxy-4-methyl-pyridine-2-carboxamide]", "IC50": "50 to 100"}, {"smiles": "CN(c1cc(NC(=O)[C@H]2C[C@H]2F)c2ncn(C)c2c1)c1ccc(C#N)cc1F", "note": "[Cpd 15, (1R,2R)-N-[6-(4-cyano-2-fluoro-N-methyl-anilino)-1-methyl-benzimidazol-4-yl]-2-fluoro-cyclopropanecarboxamide]", "IC50": "100 to 500"}, {"smiles": "CCc1cc(C#N)ccc1Oc1cc(NC(=O)[C@H]2C[C@H]2F)c2ncn(C)c2c1", "note": "[Cpd 10, (1R,2R)-N-[6-(4-cyano-2-ethyl-phenoxy)-1-methyl-benzimidazol-4-yl]-2-fluoro-cyclopropanecarboxamide]", "IC50": "0.1 to 50"}, {"smiles": "CNC(=O)Nc1cc(Oc2cnc(C#N)cc2C)cc2c1ncn2C", "IC50": "0.1 to 50"}, {"smiles": "CCc1cc(C(N)=O)ncc1N(C)c1cc(NC(=O)[C@H]2C[C@H]2F)c2ncn(C)c2c1", "note": "[Cpd 25, 4-ethyl-5-((4-((1R,2R)-2-fluorocyclopropanecarboxamido)-1-methyl-1H-benzo[d]imidazol-6-yl)(methyl)amino)picolinamide]", "IC50": "0.1 to 50"}]}]}
